For seven molecules, MIC results are on record in ChEMBL document CHEMBL1949621, “Fluorocyclines. 1. 7-fluoro-9-pyrrolidinoacetamido-6-demethyl-6-deoxytetracycline: a potent, broad spectrum antibacterial agent” (J Med Chem, 2012).

Holding throughout (type): functional
For assay [1], the system named is Staphylococcus aureus. Briefly: Antibacterial activity against Staphylococcus aureus ATCC 101 29213.
Assay [2] concerns Staphylococcus aureus. Briefly: Antibacterial activity against tetracycline- and methicillin-resistant Staphylococcus aureus 161.
In assay [3] the test system is Staphylococcus aureus. Briefly: microbe, parasite or virus in culture. The settings on record: 158.
The test system of assay [4] is Enterococcus faecalis. Briefly: Antibacterial activity against Enterococcus faecalis ATCC 103 29212.
Assay [5] has as its system Enterococcus faecalis. Briefly: Antibacterial activity against tetracycline-resistant Enterococcus faecalis 159.
Assay [6] concerns Streptococcus pneumoniae. Briefly: microbe, parasite or virus in culture. The settings on record: ATCC 106 49619.
Description: Antibacterial activity against Streptococcus pneumoniae ATCC 106 49619
Assay [7] has as its system Streptococcus pneumoniae. Briefly: Antibacterial activity against tetracycline-resistant Streptococcus pneumoniae 160.
Assay [8] deals with Escherichia coli. Briefly: Antibacterial activity against Escherichia coli ATCC 107 25922.
The subject of assay [9] is Escherichia coli. Briefly: Antibacterial activity against tetracycline-resistant Escherichia coli 155.
The subject of a further assay is Acinetobacter baumannii. Briefly: Antibacterial activity against Acinetobacter baumannii ATCC 19606 110.
Another assay has as its system Pseudomonas aeruginosa. Briefly: Antibacterial activity against Pseudomonas aeruginosa ATCC 111 27853.
The next assay has as its system Enterobacter cloacae. Briefly: Antibacterial activity against Enterobacter cloacae ATCC 108 13047.
Assay [10] relates to Klebsiella pneumoniae. Briefly: Antibacterial activity against Klebsiella pneumoniae ATCC 109 13883.
The test system of assay [11] is Klebsiella pneumoniae. Briefly: Antibacterial activity against tetracycline-resistant Klebsiella pneumoniae 153.

In brackets after ≈: the same amount, converted by molar mass.

Consider `CN(C)[C@@H]1C(O)=C(C(N)=O)C(=O)[C@@]2(O)C(O)=C3C(=O)c4c(O)c(NC(=O)CN5CC6CCCC6C5)cc(F)c4C[C@H]3C[C@@H]12` (stereo partly drawn), for which the MIC against Staphylococcus aureus [1] came to 0.5 µg/mL (≈ 0.835 µM); against Staphylococcus aureus [2] it was 1 µg/mL (≈ 1.67 µM); in the assay with Staphylococcus aureus [3], 0.5 µg/mL (≈ 0.835 µM); in the assay on Enterococcus faecalis [4], 0.25 µg/mL (≈ 0.418 µM); in the assay on Enterococcus faecalis [5] it was 0.5 µg/mL (≈ 0.835 µM); in the assay on Streptococcus pneumoniae [6] it was 0.125 µg/mL (≈ 0.209 µM). The MIC in the assay on Streptococcus pneumoniae [7] was 0.06 µg/mL (≈ 0.1 µM); in the assay with Escherichia coli [8], 1 µg/mL (≈ 1.67 µM); in the assay on Escherichia coli [9] it was 2 µg/mL (≈ 3.34 µM); with Acinetobacter baumannii, 0.06 µg/mL (≈ 0.1 µM); against Pseudomonas aeruginosa, over 32 µg/mL; in the assay with Enterobacter cloacae, 4 µg/mL (≈ 6.68 µM). The MIC came out at 2 µg/mL (≈ 3.34 µM) with Klebsiella pneumoniae [10] and 4 µg/mL (≈ 6.68 µM) with Klebsiella pneumoniae [11].
As to `CN(C)[C@@H]1C(O)=C(C(N)=O)C(=O)[C@@]2(O)C(O)=C3C(=O)c4c(O)c(NC(=O)CN5Cc6ccccc6C5)cc(F)c4C[C@H]3C[C@@H]12`, the MIC against Staphylococcus aureus [1] amounted to 0.25 µg/mL (≈ 0.412 µM); with Staphylococcus aureus [2], 0.5 µg/mL (≈ 0.824 µM); against Staphylococcus aureus [3], 0.25 µg/mL (≈ 0.412 µM); against Enterococcus faecalis [4], 0.25 µg/mL (≈ 0.412 µM); against Enterococcus faecalis [5], 0.5 µg/mL (≈ 0.824 µM); in the assay on Streptococcus pneumoniae [6], 0.125 µg/mL (≈ 0.206 µM). The MIC is 0.125 µg/mL (≈ 0.206 µM) against Streptococcus pneumoniae [7]; 2 µg/mL (≈ 3.3 µM) with Escherichia coli [8]; 4 µg/mL (≈ 6.59 µM) in the assay with Escherichia coli [9]; 0.125 µg/mL (≈ 0.206 µM) against Acinetobacter baumannii; over 32 µg/mL against Pseudomonas aeruginosa; 32 µg/mL (≈ 52.8 µM) against Enterobacter cloacae. For the same molecule, the MIC stood at 4 µg/mL (≈ 6.59 µM) with Klebsiella pneumoniae [10] and 32 µg/mL (≈ 52.8 µM) against Klebsiella pneumoniae [11].
For the molecule `CN(C)[C@@H]1C(O)=C(C(N)=O)C(=O)[C@@]2(O)C(O)=C3C(=O)c4c(O)c(NC(=O)CN5CCC5)cc(F)c4C[C@H]3C[C@@H]12`, the MIC with Staphylococcus aureus [1] turned out to be 0.125 µg/mL (≈ 0.23 µM); with Staphylococcus aureus [2], 0.25 µg/mL (≈ 0.459 µM); against Staphylococcus aureus [3], 0.5 µg/mL (≈ 0.918 µM); in the assay with Enterococcus faecalis [4], 0.0625 µg/mL (≈ 0.115 µM); in the assay with Enterococcus faecalis [5] it was 0.125 µg/mL (≈ 0.23 µM); in the assay with Streptococcus pneumoniae [6] it was 0.0156 µg/mL (≈ 0.0286 µM). The MIC came out at 0.0156 µg/mL (≈ 0.0286 µM) in the assay on Streptococcus pneumoniae [7]; 0.25 µg/mL (≈ 0.459 µM) in the assay with Escherichia coli [8]; 8 µg/mL (≈ 14.7 µM) against Escherichia coli [9]; 2 µg/mL (≈ 3.67 µM) in the assay on Acinetobacter baumannii; 8 µg/mL (≈ 14.7 µM) in the assay on Pseudomonas aeruginosa; 1 µg/mL (≈ 1.84 µM) with Enterobacter cloacae. Also, the MIC was found to be 1 µg/mL (≈ 1.84 µM) in the assay with Klebsiella pneumoniae [10] and 4 µg/mL (≈ 7.35 µM) in the assay on Klebsiella pneumoniae [11].
Consider `CN(C)[C@@H]1C(O)=C(C(N)=O)C(=O)[C@@]2(O)C(O)=C3C(=O)c4c(O)c(NC(=O)CN5CC[C@@H](F)C5)cc(F)c4C[C@H]3C[C@@H]12`, for which the MIC with Staphylococcus aureus [1] amounted to 0.25 µg/mL (≈ 0.434 µM); against Staphylococcus aureus [2], 0.5 µg/mL (≈ 0.867 µM); against Staphylococcus aureus [3], 0.5 µg/mL (≈ 0.867 µM); against Enterococcus faecalis [4] it was 0.125 µg/mL (≈ 0.217 µM); in the assay on Enterococcus faecalis [5], 0.25 µg/mL (≈ 0.434 µM); in the assay on Streptococcus pneumoniae [6], 0.0156 µg/mL (≈ 0.0271 µM). Further, the MIC is 0.0156 µg/mL (≈ 0.0271 µM) with Streptococcus pneumoniae [7]; 1 µg/mL (≈ 1.73 µM) against Escherichia coli [8]; 16 µg/mL (≈ 27.8 µM) in the assay on Escherichia coli [9]; 0.25 µg/mL (≈ 0.434 µM) against Acinetobacter baumannii; over 32 µg/mL against Pseudomonas aeruginosa; 8 µg/mL (≈ 13.9 µM) against Enterobacter cloacae. Besides, the MIC against Klebsiella pneumoniae [10] was found to be 4 µg/mL (≈ 6.94 µM); in the assay with Klebsiella pneumoniae [11], 8 µg/mL (≈ 13.9 µM).
As for `CC(C)NCC(=O)Nc1cc(F)c2c(c1O)C(=O)C1=C(O)[C@]3(O)C(=O)C(C(N)=O)=C(O)[C@@H](N(C)C)[C@@H]3C[C@@H]1C2`, the MIC amounted to 0.125 µg/mL (≈ 0.229 µM) against Staphylococcus aureus [1]; 0.25 µg/mL (≈ 0.457 µM) in the assay on Staphylococcus aureus [2]; 0.5 µg/mL (≈ 0.915 µM) against Staphylococcus aureus [3]; 0.0625 µg/mL (≈ 0.114 µM) with Enterococcus faecalis [4]; 0.0625 µg/mL (≈ 0.114 µM) in the assay with Enterococcus faecalis [5]; 0.0156 µg/mL (≈ 0.0285 µM) against Streptococcus pneumoniae [6]. The MIC in the assay with Streptococcus pneumoniae [7] was 0.0156 µg/mL (≈ 0.0285 µM); with Escherichia coli [8], 0.5 µg/mL (≈ 0.915 µM); against Escherichia coli [9], 8 µg/mL (≈ 14.6 µM); against Acinetobacter baumannii it was 1 µg/mL (≈ 1.83 µM); against Pseudomonas aeruginosa, 16 µg/mL (≈ 29.3 µM); in the assay on Enterobacter cloacae, 1 µg/mL (≈ 1.83 µM). In addition, the results for the MIC against Klebsiella pneumoniae [10] and against Klebsiella pneumoniae [11] were 1 µg/mL (≈ 1.83 µM) and 4 µg/mL (≈ 7.32 µM), respectively.
`COCCNCC(=O)Nc1cc(F)c2c(c1O)C(=O)C1=C(O)[C@]3(O)C(=O)C(C(N)=O)=C(O)[C@@H](N(C)C)[C@@H]3C[C@@H]1C2`: the MIC against Staphylococcus aureus [1] is 0.25 µg/mL (≈ 0.444 µM); against Staphylococcus aureus [2], 0.5 µg/mL (≈ 0.889 µM); with Staphylococcus aureus [3] it was 4 µg/mL (≈ 7.11 µM); against Enterococcus faecalis [4] it was 0.125 µg/mL (≈ 0.222 µM); with Enterococcus faecalis [5], 1 µg/mL (≈ 1.78 µM); against Streptococcus pneumoniae [6], 0.0156 µg/mL (≈ 0.0277 µM). For the same molecule, the MIC with Streptococcus pneumoniae [7] amounted to 0.0625 µg/mL (≈ 0.111 µM); in the assay on Escherichia coli [8], 1 µg/mL (≈ 1.78 µM); in the assay on Escherichia coli [9], 16 µg/mL (≈ 28.4 µM); with Acinetobacter baumannii it was 2 µg/mL (≈ 3.56 µM); in the assay with Pseudomonas aeruginosa it was 16 µg/mL (≈ 28.4 µM); against Enterobacter cloacae, 4 µg/mL (≈ 7.11 µM). Moreover, the values for the MIC in the assay with Klebsiella pneumoniae [10] and against Klebsiella pneumoniae [11] were 2 µg/mL (≈ 3.56 µM) and 8 µg/mL (≈ 14.2 µM), respectively.
Turning to `CN(C)[C@@H]1C(O)=C(C(N)=O)C(=O)[C@@]2(O)C(O)=C3C(=O)c4c(O)c(NC(=O)CN5CCCCC5)cc(F)c4C[C@H]3C[C@@H]12`, the MIC was 0.5 µg/mL (≈ 0.873 µM) against Staphylococcus aureus [1]; 1 µg/mL (≈ 1.75 µM) against Staphylococcus aureus [2]; 0.5 µg/mL (≈ 0.873 µM) in the assay with Staphylococcus aureus [3]; 0.25 µg/mL (≈ 0.437 µM) in the assay with Enterococcus faecalis [4]; 0.5 µg/mL (≈ 0.873 µM) against Enterococcus faecalis [5]; 0.0156 µg/mL (≈ 0.0272 µM) in the assay on Streptococcus pneumoniae [6]. For the same molecule, the MIC against Streptococcus pneumoniae [7] turned out to be 0.0156 µg/mL (≈ 0.0272 µM); in the assay on Escherichia coli [8], 1 µg/mL (≈ 1.75 µM); against Escherichia coli [9], 4 µg/mL (≈ 6.99 µM); in the assay with Acinetobacter baumannii, 0.125 µg/mL (≈ 0.218 µM); in the assay with Pseudomonas aeruginosa it was 32 µg/mL (≈ 55.9 µM); against Enterobacter cloacae, 4 µg/mL (≈ 6.99 µM). Moreover, the results for the MIC in the assay on Klebsiella pneumoniae [10] and against Klebsiella pneumoniae [11] were 2 µg/mL (≈ 3.49 µM) and 4 µg/mL (≈ 6.99 µM), respectively.
